Here are results for 23 compounds from patent US11878975B2, “Substituted indole compounds useful as TLR inhibitors” (BRISTOL-MYERS SQUIBB COMPANY, priority 2017, dated 2024).

Assay type in all cases: cell-based
In experiment [1] the target is T1, human TLR7 (Homo sapiens, UniProt Q9NYK1).
T1 construct: host or cells: HEK-Blue cells
T1 sequence (Q9NYK1 27-1049): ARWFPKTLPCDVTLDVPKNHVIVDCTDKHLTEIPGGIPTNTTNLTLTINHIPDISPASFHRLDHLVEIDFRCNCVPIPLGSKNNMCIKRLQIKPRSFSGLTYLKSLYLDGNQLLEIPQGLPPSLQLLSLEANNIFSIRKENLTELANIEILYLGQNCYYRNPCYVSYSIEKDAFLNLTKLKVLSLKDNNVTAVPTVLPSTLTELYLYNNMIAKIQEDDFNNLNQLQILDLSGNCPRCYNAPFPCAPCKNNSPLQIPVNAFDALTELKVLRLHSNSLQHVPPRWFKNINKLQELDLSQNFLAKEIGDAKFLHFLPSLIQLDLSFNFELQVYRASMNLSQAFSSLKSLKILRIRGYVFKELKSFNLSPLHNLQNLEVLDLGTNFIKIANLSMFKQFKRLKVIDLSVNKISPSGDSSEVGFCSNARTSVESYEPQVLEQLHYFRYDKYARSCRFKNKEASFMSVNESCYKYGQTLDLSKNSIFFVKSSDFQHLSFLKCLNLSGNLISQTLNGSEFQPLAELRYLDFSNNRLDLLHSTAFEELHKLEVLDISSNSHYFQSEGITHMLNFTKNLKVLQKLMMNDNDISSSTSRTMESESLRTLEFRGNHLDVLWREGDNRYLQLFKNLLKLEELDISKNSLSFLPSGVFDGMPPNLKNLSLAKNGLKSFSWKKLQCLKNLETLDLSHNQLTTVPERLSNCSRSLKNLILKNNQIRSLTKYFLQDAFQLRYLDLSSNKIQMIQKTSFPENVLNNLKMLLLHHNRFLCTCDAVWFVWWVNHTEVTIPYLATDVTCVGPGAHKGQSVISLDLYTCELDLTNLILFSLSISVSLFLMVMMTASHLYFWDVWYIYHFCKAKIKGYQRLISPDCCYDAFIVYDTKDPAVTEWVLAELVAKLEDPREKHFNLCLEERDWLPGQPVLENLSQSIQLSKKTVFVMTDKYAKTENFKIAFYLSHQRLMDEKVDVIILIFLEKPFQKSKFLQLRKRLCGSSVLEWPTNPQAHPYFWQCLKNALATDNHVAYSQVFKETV
Put plainly: TLR7 inhibition reporter assay (HEK-Blue cells, SEAP reporter, gardiquimod stimulation). Conditions: HEK-Blue cells overexpressing human TLR7, SEAP reporter, gardiquimod 7.5 μM. The method, boiled down:
(§1)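 HEK-Blue cells with NF-κB/AP-1-driven SEAP reporter, pre-treated 30 min at room temperature with compound (0.05 nM-50 μM). Stimulants: gardiquimod 7.5 μM (TLR7), R848 15.9 μM (TLR8) or ODN2006 5 nM (TLR9). SEAP measured after 22 h at 37° C.; percent inhibition versus agonist-plus-DMSO and known-inhibitor wells.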

Experiment [2] deals with T2, human TLR8 (Homo sapiens, UniProt Q9NR97).
T2 construct: host or cells: HEK-Blue cells
T2 sequence (Q9NR97 27-1041): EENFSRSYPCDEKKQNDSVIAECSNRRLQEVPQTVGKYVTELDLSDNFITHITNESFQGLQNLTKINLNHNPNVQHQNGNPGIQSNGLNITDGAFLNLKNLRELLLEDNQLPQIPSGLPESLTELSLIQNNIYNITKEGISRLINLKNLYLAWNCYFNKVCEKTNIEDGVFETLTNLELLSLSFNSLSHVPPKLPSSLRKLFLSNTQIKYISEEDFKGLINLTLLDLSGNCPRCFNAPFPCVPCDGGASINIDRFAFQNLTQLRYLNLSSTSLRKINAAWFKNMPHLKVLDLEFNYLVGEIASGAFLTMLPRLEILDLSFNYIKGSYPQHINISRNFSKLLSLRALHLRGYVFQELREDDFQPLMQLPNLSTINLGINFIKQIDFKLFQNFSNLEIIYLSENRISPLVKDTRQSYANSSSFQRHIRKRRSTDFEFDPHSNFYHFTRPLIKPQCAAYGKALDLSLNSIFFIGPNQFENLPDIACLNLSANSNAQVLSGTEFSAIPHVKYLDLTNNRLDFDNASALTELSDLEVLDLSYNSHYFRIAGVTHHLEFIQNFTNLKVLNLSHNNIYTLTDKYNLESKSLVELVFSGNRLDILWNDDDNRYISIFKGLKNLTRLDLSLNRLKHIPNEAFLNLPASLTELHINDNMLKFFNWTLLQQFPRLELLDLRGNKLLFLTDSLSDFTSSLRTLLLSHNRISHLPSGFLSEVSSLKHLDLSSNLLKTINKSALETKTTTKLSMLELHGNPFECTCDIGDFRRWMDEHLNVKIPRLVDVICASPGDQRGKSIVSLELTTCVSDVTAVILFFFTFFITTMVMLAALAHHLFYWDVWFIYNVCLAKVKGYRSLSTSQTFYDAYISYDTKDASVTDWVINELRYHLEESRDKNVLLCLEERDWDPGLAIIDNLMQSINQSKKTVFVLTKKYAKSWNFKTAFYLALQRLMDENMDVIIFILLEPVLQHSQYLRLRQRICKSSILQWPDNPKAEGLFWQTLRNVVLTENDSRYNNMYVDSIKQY
As to the kind of experiment: TLR8 inhibition reporter assay (HEK-Blue cells, SEAP reporter, R848 stimulation). The conditions noted are these: HEK-Blue cells overexpressing human TLR8, SEAP reporter, R848 15.9 μM. The method, boiled down:
as §1
(In general: Reporter assays use an easily measured gene product as a stand-in for the process of interest.)

The target in experiment [3] is T3, human TLR9 (Homo sapiens, UniProt Q9NR96).
T3 construct: host or cells: HEK-Blue cells
T3 sequence (Q9NR96 26-1032): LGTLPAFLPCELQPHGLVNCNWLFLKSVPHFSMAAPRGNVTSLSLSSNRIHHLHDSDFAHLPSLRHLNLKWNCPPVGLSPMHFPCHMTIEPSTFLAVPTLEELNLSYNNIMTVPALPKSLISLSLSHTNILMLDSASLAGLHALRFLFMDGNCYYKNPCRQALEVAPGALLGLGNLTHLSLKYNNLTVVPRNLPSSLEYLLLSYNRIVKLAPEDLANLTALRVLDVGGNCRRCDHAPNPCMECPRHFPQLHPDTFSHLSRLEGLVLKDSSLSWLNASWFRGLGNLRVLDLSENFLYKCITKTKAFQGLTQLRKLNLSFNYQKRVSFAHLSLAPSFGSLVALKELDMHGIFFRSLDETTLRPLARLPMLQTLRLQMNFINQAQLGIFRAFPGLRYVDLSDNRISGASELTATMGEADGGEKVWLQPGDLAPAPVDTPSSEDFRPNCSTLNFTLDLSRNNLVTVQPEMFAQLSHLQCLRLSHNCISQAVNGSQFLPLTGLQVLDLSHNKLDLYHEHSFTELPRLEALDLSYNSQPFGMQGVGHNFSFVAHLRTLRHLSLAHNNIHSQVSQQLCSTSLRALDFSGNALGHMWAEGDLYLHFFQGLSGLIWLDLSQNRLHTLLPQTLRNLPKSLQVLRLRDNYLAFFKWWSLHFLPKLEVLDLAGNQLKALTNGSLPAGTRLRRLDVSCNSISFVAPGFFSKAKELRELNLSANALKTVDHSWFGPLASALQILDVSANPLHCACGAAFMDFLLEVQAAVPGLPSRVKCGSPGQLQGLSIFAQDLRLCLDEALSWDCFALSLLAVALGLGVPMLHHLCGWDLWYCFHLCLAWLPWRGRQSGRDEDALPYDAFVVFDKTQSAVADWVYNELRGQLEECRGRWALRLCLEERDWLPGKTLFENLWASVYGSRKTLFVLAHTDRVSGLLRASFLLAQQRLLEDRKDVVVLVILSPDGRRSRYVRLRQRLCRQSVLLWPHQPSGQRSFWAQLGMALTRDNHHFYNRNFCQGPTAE
Put plainly: TLR9 inhibition reporter assay (HEK-Blue cells, SEAP reporter, ODN2006 stimulation). The conditions noted are these: HEK-Blue cells overexpressing human TLR9, SEAP reporter, ODN2006 5 nM. The method, boiled down:
as §1

Broadly, the IC50 is the concentration needed to halve the response being measured. Read a low IC50 as inhibition by little substance.

Take `Cc1c(-c2[nH]c3ccc(C4CCC(NC5COC5)CC4)cc3c2C(C)C)cn2cnnc2c1C` (stereo not drawn) [Example 523]: the IC50 came out at 0.00048 µM in experiment [1], 0.0051 µM in experiment [2] and 2.72 µM in experiment [3].
For `Cc1c(-c2[nH]c3ccc(C4CCC(NC5COC5)CC4)cc3c2C(C)C)cn2cnnc2c1C` (stereo not drawn) [Example 524], in that order: 0.012 µM, 0.021 µM and 11.1 µM.
For `CNC1CCC(c2ccc3[nH]c(-c4cn5cnnc5c(C)c4C)c(C(C)C)c3c2)CC1` (stereo not drawn) [Example 525], in that order: 0.007 µM, 0.05 µM and 4.41 µM.
Consider `Cc1c(-c2[nH]c3ccc(C4CCC(N(C)C5COC5)CC4)cc3c2C(C)C)cn2cnnc2c1C` (stereo not drawn) [Example 526], for which the IC50 in experiment [1] was 0.006 µM; in experiment [2], 0.034 µM; in experiment [3], 6.97 µM.
For `Cc1c(-c2[nH]c3ccc(C4CCC(N(C)C)CC4)cc3c2C(C)C)cn2cnnc2c1C` (stereo not drawn) [Example 527], in that order: 0.00052 µM, 0.0045 µM and 0.765 µM.
As for `Cc1c(-c2[nH]c3ccc(C4CCC(N(C)C5COC5)CC4)cc3c2C(C)C)cn2cnnc2c1C` (stereo not drawn) [Example 528], the IC50 in experiment [1] came to 0.002 µM; in experiment [2], 0.016 µM; in experiment [3], 5.6 µM.
For `Cc1c(-c2[nH]c3ccc(C4CCC(N(C)C)CC4)cc3c2C(C)C)cn2cnnc2c1C` (stereo not drawn) [Example 529], in that order: 0.012 µM, 0.039 µM and 9.13 µM.
With `CNC1CCC(c2ccc3[nH]c(-c4cn5cnnc5c(C)c4C)c(C(C)C)c3c2)CC1` (stereo not drawn) [Example 530], the IC50 in experiment [1] was found to be 0.002 µM; in experiment [2] it was 0.012 µM; in experiment [3], 0.696 µM.
As to `Cc1c(-c2[nH]c3ccc(C4CNC4)cc3c2C(C)C)cn2cnnc2c1C` [Example 531], the values for the half-inhibitory concentration (IC50) in experiment [1], in experiment [2] and in experiment [3] were 0.057 µM, 0.137 µM and 10.2 µM, respectively.
As for `Cc1c(-c2[nH]c3ccc(C4CN(CCS(C)(=O)=O)C4)cc3c2C(C)C)cn2cnnc2c1C` [Example 532], the IC50 in experiment [1] was 0.013 µM; in experiment [2], 0.02 µM; in experiment [3] it was 16.9 µM.
For `Cc1c(-c2[nH]c3ccc(C4CN(C)C4)cc3c2C(C)C)cn2cnnc2c1C` [Example 533], in that order: 0.008 µM, 0.042 µM and 2.19 µM.
As to `Cc1c(-c2[nH]c3ccc(C4CN(C(C)C)C4)cc3c2C(C)C)cn2cnnc2c1C` [Example 534], the IC50 is 0.009 µM in experiment [1], 0.028 µM in experiment [2] and 7.17 µM in experiment [3].
Regarding `Cc1c(-c2[nH]c3ccc(C4CN(CC5(C)COC5)C4)cc3c2C(C)C)cn2cnnc2c1C` [Example 536], the IC50 in experiment [1] was determined as 0.026 µM; in experiment [2] it was 0.021 µM; in experiment [3] it was 11 µM.
For `Cc1c(-c2[nH]c3ccc(C4CN(Cc5ncn(C)n5)C4)cc3c2C(C)C)cn2cnnc2c1C` [Example 537], in that order: 0.051 µM, 0.04 µM and 27.8 µM.
Take `Cc1c(-c2[nH]c3ccc(C4CN(C5CCOC5)C4)cc3c2C(C)C)cn2cnnc2c1C` (stereo not drawn) [Example 538]: the IC50 in experiment [1] was determined as 0.033 µM; in experiment [2], 0.045 µM; in experiment [3], 16.5 µM.
For `Cc1c(-c2[nH]c3ccc(C4CN(CC(=O)N(C)C)C4)cc3c2C(C)C)cn2cnnc2c1C` [Example 539], in that order: 0.064 µM, 0.132 µM and 1.89 µM.
For `Cc1c(-c2[nH]c3ccc(C4CN(C5COC5)C4)cc3c2C(C)C)cn2cnnc2c1C` [Example 540], in that order: 0.019 µM, 0.036 µM and 18.6 µM.
For the compound `Cc1c(-c2[nH]c3ccc(C4CC(N)C4)cc3c2C(C)C)cn2ncnc2c1C` (stereo not drawn) [Example 541], the IC50 in experiment [1] was found to be 0.002 µM; in experiment [2] it was 0.00079 µM; in experiment [3], 5.74 µM.
For `Cc1c(-c2[nH]c3ccc(C4CC(N)C4)cc3c2C(C)C)cn2ncnc2c1C` (stereo not drawn) [Example 542], in that order: 0.003 µM, 0.0012 µM and 5.1 µM.
For `Cc1c(-c2[nH]c3ccc(C4CN(CCS(C)(=O)=O)C4)cc3c2C(C)C)cn2ncnc2c1C` [Example 543], in that order: 0.004 µM, 0.0051 µM and 9.49 µM.
For `Cc1c(-c2[nH]c3ccc(C4CN(C5COC5)C4)cc3c2C(C)C)cn2ncnc2c1C` [Example 544], in that order: 0.005 µM, 0.012 µM and 21 µM.
For `Cc1c(-c2[nH]c3ccc(C4CNC4)cc3c2C(C)C)cn2ncnc2c1C` [Example 545], the values for the IC50 in experiment [1], in experiment [2] and in experiment [3] were 0.002 µM, 0.0038 µM and 2.04 µM, respectively.
For `CCCN1CC(c2ccc3[nH]c(-c4cn5cnnc5c(C)c4C)c(C(C)C)c3c2)C1` [Example 546], in that order: 0.004 µM, 0.0058 µM and 3.87 µM.
